Assay results reported in ChEMBL document CHEMBL5321216, “Discovery of bipyridine amide derivatives targeting pRXRα-PLK1 interaction for anticancer therapy” (Eur J Med Chem, 2023).
Active and inactive are the calls of the source. No cut-off for these calls is given here.

Tests used:
[1] = biological target: T1, Retinoic acid receptor RXR-alpha (Homo sapiens) (UniProt P19793); assay: Antagonist activity at RXRalpha (unknown origin) transfected in human HeLa cells assessed as inhibition of CD3254- induced receptor transactivation by measuring remaining luciferase activity at 1 uM incubated for 24 hrs by dual luciferase reporter assay; assay type: cell-based; settings: filed as antagonist
T1 sequence (whole entry): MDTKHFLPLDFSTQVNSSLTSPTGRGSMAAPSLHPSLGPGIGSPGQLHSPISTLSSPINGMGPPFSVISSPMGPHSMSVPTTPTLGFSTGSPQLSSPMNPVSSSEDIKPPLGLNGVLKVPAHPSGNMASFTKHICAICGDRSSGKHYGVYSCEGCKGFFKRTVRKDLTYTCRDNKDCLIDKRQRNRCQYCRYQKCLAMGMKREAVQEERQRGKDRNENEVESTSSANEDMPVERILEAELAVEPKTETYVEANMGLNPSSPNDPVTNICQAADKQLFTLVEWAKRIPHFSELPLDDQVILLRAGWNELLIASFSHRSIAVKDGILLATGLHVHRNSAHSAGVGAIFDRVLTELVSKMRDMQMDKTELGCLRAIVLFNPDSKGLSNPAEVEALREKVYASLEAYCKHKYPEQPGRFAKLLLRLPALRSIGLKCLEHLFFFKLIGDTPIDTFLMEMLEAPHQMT

MDA-MB-231 [2] = assay: Antiproliferative activity against human MDA-MB-231 cells assessed as cell viability rate at 5 uM incubated for 72 hrs by MTT assay relative to control; assay type: functional
MDA-MB-231 [3] = assay: Antiproliferative activity against human MDA-MB-231 cells assessed as inhibition of cell proliferation incubated for 72 hrs by MTT assay; assay type: functional, cell-based; settings: MDA-MB-231, 72 h
[4] = Cytotoxicity against human MCF-10A cells assessed as inhibition of cell proliferation incubated for 72 hrs by MTT assay; assay type: toxicity, cell-based
[5] = Selectivity index, ratio of IC50 for human MCF7 cells to IC50 for human MDA-MB-231 cells; assay type: toxicity
[6] = Selectivity index, ratio of IC50 for human A549 cells to IC50 for human MDA-MB-231 cells; assay type: functional
MDA-MB-231 [7] = assay: Induction of apoptosis in human MDA-MB-231 cells assessed as increase in cleaved PARP expression at 125 nM by Western blot analysis; assay type: functional, cell-based; settings: time 1-24 hrs, TDE = time-dependent effect
[8] = biological target: T1, Retinoic acid receptor RXR-alpha (Homo sapiens); assay: Antagonist activity at RXRalpha (unknown origin) transfected in human HeLa cells at 31.25 uM incubated for 24 hrs by dual luciferase reporter assay; assay type: cell-based; settings: filed as antagonist
[9] = biological target: T2, Retinoic acid receptor RXR-gamma (Homo sapiens) (UniProt P48443); assay: Antagonist activity at RXRgamma (unknown origin) transfected in human HeLa cells at 31.25 uM incubated for 24 hrs by dual luciferase reporter assay; assay type: cell-based
T2 sequence (whole entry): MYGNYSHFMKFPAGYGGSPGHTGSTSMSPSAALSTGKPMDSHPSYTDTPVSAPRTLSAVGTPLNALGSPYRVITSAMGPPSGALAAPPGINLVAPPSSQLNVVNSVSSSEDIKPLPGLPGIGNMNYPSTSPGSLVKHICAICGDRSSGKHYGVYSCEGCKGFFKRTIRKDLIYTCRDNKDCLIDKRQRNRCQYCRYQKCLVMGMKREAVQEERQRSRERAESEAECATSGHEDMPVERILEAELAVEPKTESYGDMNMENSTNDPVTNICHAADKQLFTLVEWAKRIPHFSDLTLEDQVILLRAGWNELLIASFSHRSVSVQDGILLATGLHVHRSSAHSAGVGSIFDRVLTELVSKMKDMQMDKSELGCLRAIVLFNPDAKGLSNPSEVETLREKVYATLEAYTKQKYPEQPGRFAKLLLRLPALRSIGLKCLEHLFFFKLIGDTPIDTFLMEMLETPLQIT

MDA-MB-231 [10] = assay: Induction of cell cycle arrest in human MDA-MB-231 cells assessed as accumulation of cells at S phase at 125 nM incubated for 12 hrs by flow cytometry analysis (reference value: 40.89%); assay type: functional
A549 [11] = assay: Induction of cell cycle arrest in human A549 cells assessed as accumulation of cells at G2 phase at 15.625 nM incubated for 12 hrs by flow cytometry analysis (reference value: 8.62%); assay type: functional; settings: 0.01562 µM
A549 [12] = assay: Induction of cell cycle arrest in human A549 cells assessed as accumulation of cells at S phase at 62.5 nM incubated for 12 hrs by flow cytometry analysis (reference value: 31.81%); assay type: functional
A549 [13] = assay: Induction of cell cycle arrest in human A549 cells assessed as accumulation of cells at G2 phase at 125 nM incubated for 12 hrs by flow cytometry analysis (reference value: 8.62%); assay type: functional
MDA-MB-231 [14] = assay: Induction of apoptosis in human MDA-MB-231 cells assessed as late apoptotic cells at 31.25 nM incubated for 24 hrs by annexin V-FITC/PI staining based flow cytometry analysis (reference value: 5.93%); assay type: functional
MDA-MB-231 [15] = assay: Induction of apoptosis in human MDA-MB-231 cells assessed as early apoptotic cells at 125 nM incubated for 24 hrs by annexin V-FITC/PI staining based flow cytometry analysis (reference value: 2.03%); assay type: functional
MDA-MB-231 [16] = assay: Induction of apoptosis in human MDA-MB-231 cells assessed as late apoptotic cells at 250 nM incubated for 24 hrs by annexin V-FITC/PI staining based flow cytometry analysis (reference value: 5.93%); assay type: functional
MDA-MB-231 [17] = assay: Induction of apoptosis in human MDA-MB-231 cells assessed as dead cells at 250 nM incubated for 24 hrs by annexin V-FITC/PI staining based flow cytometry analysis (reference value: 0.69%); assay type: functional
[18] = Drug absorption in KM mouse at 25 mg/kg, ip measured after 0.5 to 2 hrs; assay type: ADME, organism-based; settings: in vivo, time 0.5-2 hrs
[19] = Apparent clearance during terminal phase in Sprague-Dawley rat at 25 mg/kg, ip measured for 48 hrs by LC-MS/MS analysis; assay type: ADME, organism-based; settings: in vivo, read-out: CLz/F (converted)
MDA-MB-231 [20] = assay: Antitumor activity against human MDA-MB-231 cells xenografted in BALB/c nude mouse assessed as inhibition of tumor growth by measuring chromosome aberrations at 12.5 to 25 mg/kg/day, ip administered for 15 days; assay type: functional, organism-based; settings: dose 12.5-25 mg/kg/day, time 15.0 day
MDA-MB-231 [21] = assay: Antitumor activity against human MDA-MB-231 cells xenografted in BALB/c nude mouse assessed as inhibition of tumor growth by measuring DNA damaging response at 12.5 to 25 mg/kg/day, ip administered for 15 days; assay type: functional, organism-based; settings: dose 12.5-25 mg/kg/day, time 15.0 day
[22] = Toxicity in BALB/c mouse xenografted with human MDA-MB-231 cells assessed as spleen damage at 25 mg/kg/day, ip administered for 15 days by H and E staining based analysis; assay type: organism-based; settings: in vivo, 360 h, time 15 day
[23] = Toxicity in BALB/c mouse xenografted with human MDA-MB-231 cells assessed as liver damage at 25 mg/kg/day, ip administered for 15 days by H and E staining based analysis; assay type: organism-based; settings: in vivo, 360 h, time 15 day
HeLa = assay: Inhibition of MYC tagged pRXRalpha-FLAG tagged PLK1 (unknown origin) protein-protein interaction transfected in human HeLa cells at 500 nM incubated for 3 hrs by co-immunoprecipitation assay; assay type: cell-based

In the case of O=C(/C=C/c1ccccc1)Nc1cc(-c2ccnc(N3CCC(CO)CC3)c2)ccn1, the inhibition [1] is reported as “Active”, the Activity (MDA-MB-231 [2]) is reported as 31.72% and the IC50 (MDA-MB-231 [3]) is reported as 0.016 µM. For the same compound, the IC50 at 72 h [4] was 18.6 µM, the “Ratio IC50” value [5] was 146.5 and the “Ratio IC50” value [6] was 12.56. The Activity (MDA-MB-231 [7]) was “Tde”, the Activity [8] was “Active” and the Activity [9] was “inactive”. The Activity (MDA-MB-231 [10]) was 14.05%, the Activity (A549 [11]) was 8.95% and the Activity (A549 [12]) was 27.68%. It also gave an Activity (A549 [13]) of 46.39%, an Activity (MDA-MB-231 [14]) of 14.7% and an Activity (MDA-MB-231 [15]) of 11.2%. The Activity (MDA-MB-231 [16]) was 20.2%, the Activity (MDA-MB-231 [17]) was 1.67% and the Drug absorption [18] was “Active”. For the same compound, the CL/F [19] was 25.8 mL/min/kg, the Activity (MDA-MB-231 [20]) was “Active” and the Activity (MDA-MB-231 [21]) was “Active”. The Activity [22] was “Non-Toxic”, the Activity [23] was “Non-Toxic” and the inhibition (HeLa) was “Active”.
